Source: PMC3381009 (Journal of Medicinal Chemistry, 2012)

Assays:
[1] = target: Mycobacterium tuberculosis glutamine synthetase (MtGS) (Mycobacterium tuberculosis, UniProt P9WN39); assay: MtGS inhibition screening and IC50 determination; format: biochemical; conditions: for inhibitory activity in the MtGS enzymatic assay (in words): inhibition screening at 25 μM; for fold increase of affinity/potency (IC50) compared to 7a: MtGS IC50 ratio vs 7a
MtGS = conditions: read-out: IC50 obtained in the HTS study; HTS assay conditions; cited from earlier work

Chain of Mycobacterium tuberculosis glutamine synthetase (MtGS) (P9WN39 whole entry): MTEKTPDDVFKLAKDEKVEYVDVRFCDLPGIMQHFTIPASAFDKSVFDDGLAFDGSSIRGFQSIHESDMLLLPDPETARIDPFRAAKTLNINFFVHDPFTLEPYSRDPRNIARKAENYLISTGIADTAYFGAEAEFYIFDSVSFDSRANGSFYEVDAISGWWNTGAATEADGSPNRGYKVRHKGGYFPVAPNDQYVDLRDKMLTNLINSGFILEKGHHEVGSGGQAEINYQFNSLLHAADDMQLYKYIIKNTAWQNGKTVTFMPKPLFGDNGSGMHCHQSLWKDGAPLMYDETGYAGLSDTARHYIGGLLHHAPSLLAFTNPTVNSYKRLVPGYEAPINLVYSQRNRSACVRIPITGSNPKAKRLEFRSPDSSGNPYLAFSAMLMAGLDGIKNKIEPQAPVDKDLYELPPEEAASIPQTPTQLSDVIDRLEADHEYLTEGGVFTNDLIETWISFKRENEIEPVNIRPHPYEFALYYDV

COc1ccc2cc(-c3nc(C(C)(C)C)[nH]c3-c3ccncc3)ccc2c1 [Compound 7a]
fold higher IC50 than the IC50 obtained in the HTS study [1]: 30 fold
IC50 (MtGS): 100 nM

COc1ccc2cc(-c3nc(C)[nH]c3-c3ccncc3)ccc2c1 [Compound 7f]
inhibitory activity in the MtGS enzymatic assay (in words) [1]: inactive

COc1ccc2cc(-c3nc[nH]c3-c3ccncc3)ccc2c1 [Compound 7g]
inhibitory activity in the MtGS enzymatic assay (in words) [1]: inactive

COc1ccc2cc(-c3nc(COCc4ccccc4)[nH]c3-c3ccncc3)ccc2c1 [Compound 7h]
inhibitory activity in the MtGS enzymatic assay (in words) [1]: did not show any inhibitory activity

COc1ccc2cc(-c3nc(CO)[nH]c3-c3ccncc3)ccc2c1 [Compound 7i]
inhibitory activity in the MtGS enzymatic assay (in words) [1]: inactive

COc1ccc2cc(-c3nc(C(C)(C)C)[nH]c3-c3ccnc(F)c3)ccc2c1 [Compound 10]
fold increase of affinity/potency (IC50) compared to 7a [1]: ~2.5 fold

COc1ccc2cc(-c3nc(C(C)(C)C)[nH]c3-c3ccnc(N)c3)ccc2c1 [Compound 11a, 4-(2-tert-Butyl-4-(6-methoxynaphthalen-2-yl)-1H-imidazol-5-yl)pyridin-2-amine]
fold increase of affinity/potency (IC50) compared to 7a [1]: over 60 fold

CNc1cc(-c2[nH]c(C(C)(C)C)nc2-c2ccc3cc(OC)ccc3c2)ccn1 [Compound 11b]
fold loss in activity compared to 11a [1]: 100 fold

COc1ccc2cc(-c3nc(C(C)(C)C)[nH]c3-c3ccnc(N(C)C)c3)ccc2c1 [Compound 11c]
inhibitory activity in the MtGS enzymatic assay (in words) [1]: inactive
